Reference: publication PMC2912403 (Journal of medicinal chemistry, 2010)
“Also recorded” adds a separate entry of the source.

Key:
[1] = system: κ agonist U50,488-induced diuresis; details: antagonism of U50,488-induced diuresis; cited from earlier work
[2] = system: κ agonist U50,488-induced diuresis; experiment: Antagonism of U50,488-induced diuresis in rats; type: in vivo, male Sprague-Dawley rats; details: for antagonism of U50,488-induced diuresis (urine output), week 0: s.c., first 5 h after dosing, U50,488 10 mg/kg; for antagonism of U50,488-induced diuresis (urine output), week 1: single s.c. dose at week 0, no further dosing

## Oc1ccc2c3c1O[C@H]1c4[nH]c5c(c4C[C@@]4(O)[C@@H](C2)N(CC2CC2)CC[C@]314)C[C@@]1(O)[C@H]2Cc3ccc(O)c4c3[C@@]1(CCN2CC1CC1)[C@H]5O4 [Compound 1, norBNI]
[1]
  duration of κ antagonist activity: up to 3 weeks

## CC(C)[C@@H](CN1CC[C@@](C)(c2cccc(O)c2)[C@@H](C)C1)NC(=O)[C@H]1Cc2ccc(O)cc2CN1 [Compound 3, (3R)-7-Hydroxy-N-[(1S)-1-{[(3R,4R)-4-(3-hydroxyphenyl)-3,4-dimethyl-1-piperidinyl]methyl}-2-methylpropyl)-1,2,3,4-tetrahydro-3-isoquinolinecarboxamide, reference compound]
[2]
  antagonism of U50,488-induced diuresis (urine output), week 0: dose-related antagonism
  antagonism of U50,488-induced diuresis (urine output), week 1: continued to show dose-related antagonism

## CC(C)[C@@H](CN1CC[C@@](C)(c2cccc(O)c2)[C@@H](C)C1)NC(=O)[C@@H]1CCc2cc(O)ccc2C1 [Compound 7a, 6-Hydroxy-1,2,3,4-tetrahydro-naphthalene-2(+)-carboxylic acid-{1-[4-(3-hydroxyphenyl)-(3R,4R)-trans-dimethyl-piperidinylmethyl]-(2S)-methylpropyl}amide]
[2]; 10 and 30 mg/kg s.c., week 0, Dunnett's test vs U50,488
  antagonism of the diuretic effects of U50,488 at individual doses: significant antagonism
[2]
  antagonism of U50,488-induced diuresis (urine output), week 0: antagonized selective κ agonist U50,488-induced diuresis; also recorded: dose-related antagonism
  antagonism of U50,488-induced diuresis (urine output), week 1: did not show any κ antagonist activity after one week; also recorded: antagonism of U50,488 could no longer be detected
[2]; single s.c. dose
  duration of activity as antagonist of U50,488-induced diuresis: less than 1 week
